From patent publication US20190192559A1, “COMBINATION OF PROTEASOME INHIBITORS AND ANTI-CD30 ANTIBODIES” (Millennium Pharmaceuticals, Inc., priority 2016, published 2019)

Experiments:
Assay type in all cases: in vivo
[1] = tested on: SUDHL-2 tumor cells (CD30+ human large cell lymphoma cell line); experiment: SUDHL-2 subcutaneous xenograft tumor efficacy model in CB17-SCID mice; conditions: for Average tumor volume day 24: in mm³ (unit assumed)
Description: SUDHL-2 (2×10^6) tumor cells in RPMI-1640 media were aseptically injected into the subcutaneous space in the right dorsal flank of CB17-SCID female mice (Shanghai SLAC Laboratory Animal Co., LTD). SUDHL-2 is a CD30+ human large cell lymphoma cell line and was obtained from ATCC (Manassas, Va.).
(§1) Brentuximab vedotin (SGN-35), one vial (Seattle Genetics, 50 mg) was reconstituted in 50 ml 0.9% saline to give a stock solution of 1 mg/ml. The stock solution was then diluted again in 0.9% saline to reach the desired concentration and administered by intraperitoneal injection (IP) on q4D schedule for 21 days (SR-786), 14 days (Karpas-299) or 24 days (SUDHL-2) at 0.2 mg/kg, 0.4 mg/kg and 0.8 mg/kg.
(§2) The compound of formula (IIIa) was formulated in either 5% hydroxypropyl-beta-cyclodextrin (for SR-786 and Karpas-299 studies) or in 20% hydroxypropyl-beta-cyclodextrin for SUDHL-2 study. The amounts listed below in Tables 1a-3b are calculated based on the compound of formula (IV). The drug was administered by IV injection (1 cc syringe, 20-22 gauge) on BIW schedule at either 2 mg/kg or 8 mg/kg for 21 days (SR-786), 14 days (Karpas-299), or 24 days (SUDHL-2).
(§3) Tumors were measured twice weekly using a vernier caliper. Tumor volumes were calculated using standard procedures (0.5×(length×width^2)). When the tumors reached a volume of approximately 200 mm^3 for SR-786, 150 mm^3 for Karpas-299 and SUDHL-2, mice were randomized into 7-8 groups as described in the tables below, and injected with vehicle, compound of formula (IV) or SGN-35 or the combination of compound of formula (IV) with SGN-35, at various doses as described below in Tables 1a, 2a and 3a. Tumor size and body weight were measured approximately twice a week for the duration of the study. Mice were euthanized when their tumor volume reached 10% of their body weight, or when the average tumor volume of a treatment or control group reached approximately 2000 mm^3. Tumor growth continued to be monitored after the dosing period in this study. Tumor volume on study day 21 for all groups is shown in table 1a for SR-786 study; on study day 14 for all groups for Karpas-299 study in table 2a and on study day 24 for all groups for SUDHL-2 study in table 3a. Average tumor volume is reported as a function of time for all groups in FIG. 1 (SR-786), FIG. 2 (Karpas-299) and FIG. 3 (SUDHL-2). Tumor volumes were reported till the end of the study to capture re-growth.
(§4) The synergy analysis is based on the tumor volume data from day 0 to 21 for SR-786, days 0 to 14 for Karpas-299 and days 0 to 24 for SUDHL-2 and presented in table 1b, 2b and 3b. Volume measurements below 25 cubic mm are excluded from the analysis because very low volumes cannot be measured accurately. The remaining measurements are log transformed and fit to a simple linear model with the measurement day as a covariate. The data are fit separately for the different animals to yield an estimated tumor growth rate for each animal in each treatment group. Based on the growth rates, the synergy score for the combination of agents A and B is defined as
(§5) 100*(mean(μAB)−mean(μA)−mean(μB)+mean(μctl))/mean(μctl):
(§6) where μAB, μA, μB, and μctl are the mean tumor growth rates for animals in the combination group, the A group, the B group, and the control group, respectively. The standard error of the synergy score is computed based on the variation in the growth rates among the animals. […] If the P-value is above 0.05, then the combination is considered to be additive. If the P-value is below 0.05, and the synergy score is less than zero, then the combination is considered to be synergistic. […] Otherwise, the combination is classified as antagonistic.

[2] = tested on: SR-786 tumor cells (CD30+ human large T cell lymphoma cell line); experiment: SR-786 subcutaneous xenograft tumor efficacy model in CB17 SCID mice; conditions: for Average tumor volume day 21: in mm³ (unit assumed)
Description: (§7) SR-786 (6.0×10^6) tumor cells in RPMI-1640 media were aseptically injected into the subcutaneous space in the right dorsal flank of CB17 SCID female mice (Charles River Lab) using a 26 G ⅝ needle. SR-786 is a CD30+ human large T cell lymphoma cell line and was obtained from DSMZ (Braunschweig, Germany).
as §1, §2, §3, §4, §5, §6

[3] = tested on: Karpas-299 tumor cells (CD30+ human large T cell lymphoma cell line); experiment: Karpas-299 subcutaneous xenograft tumor efficacy model in CB17 SCID mice; conditions: for Average tumor volume day 14: in mm³ (unit assumed)
Description: as §7, with “Karpas-299 (0.5×10^6)” for “SR-786 (6.0×10^6)”, “Rive” for “River”, “Karpas-299” for “SR-786”
as §1, §2, §3, §4, §5, §6

[4] = compound of formula (IV) 2 mg/kg BIW IV
[5] = compound of formula (IV) 2 mg/kg IV
[6] = compound of formula (IV) 8 mg/kg BIW IV
[7] = compound of formula (IV) 8 mg/kg IV
[8] = SGN-35 0.2 mg/kg IP, compared to the control vehicle group
[9] = SGN-35 0.4 mg/kg IP, compared to the control vehicle group
[10] = SGN-35 0.8 mg/kg IP, compared to the control vehicle group

CC(C)C[C@H](NC(=O)CNC(=O)c1cc(Cl)ccc1Cl)B(O)O [compound of formula (IV), [(1R)-1-({[(2,5-dichlorobenzoyl)amino]acetyl}amino)-3-methylbutyl]boronic acid]
Average tumor volume day 24 [1, 4]: 1449.3 | tumor growth inhibition [1, 5]: 6% | Average tumor volume day 24 [1, 6]: 1129.5 | tumor growth inhibition [1, 7]: 26% | day on which group was sacrificed ([1]; two compound of formula (IV) treated groups (Group 2 and 3; 2 mg/kg and 8 mg/kg)): 27 days | Average tumor volume day 21 [2, 4]: 1221.5 | tumor growth inhibition [2, 5]: 10% | Average tumor volume day 21 [2, 6]: 500.6 | tumor growth inhibition [2, 7]: 63% | Average tumor volume day 14 [3, 4]: 1600 | tumor growth inhibition [3, 5]: −16% | Average tumor volume day 14 [3, 6]: 1971.5 | tumor growth inhibition [3, 7]: −43% | day on which group was sacrificed due to high tumor burden ([3]; compound of formula (IV) single agent groups (2 mg/kg and 8 mg/kg)): 14 days

SGN-35
day on which group was sacrificed ([1]; SGN-35 0.2 mg/kg (Group 4)): 27 days | tumor growth inhibition [1, 8]: 12% | Average tumor volume day 24 ([1]; SGN-35 0.2 mg/kg Q4D IP): 1352.3 | day on which group was sacrificed ([1]; SGN-35 0.4 mg/kg (Group 5)): 45 days | tumor growth inhibition [1, 9]: 50% | Average tumor volume day 24 ([1]; SGN-35 0.4 mg/kg Q4D IP): 774.2 | day on which group was sacrificed ([1]; SGN-35 0.8 mg/kg (Group 6)): 59 days | tumor growth inhibition [1, 10]: 82% | Average tumor volume day 24 ([1]; SGN-35 0.8 mg/kg Q4D IP): 274.9 | tumor growth inhibition ([2]; SGN-35 0.2 mg/kg IP): 3% | Average tumor volume day 21 ([2]; SGN-35 0.2 mg/kg Q4D IP): 1330 | tumor growth inhibition ([2]; SGN-35 0.4 mg/kg IP): 70% | Average tumor volume day 21 ([2]; SGN-35 0.4 mg/kg Q4D IP): 409.9 | tumor growth inhibition ([2]; SGN-35 0.8 mg/kg IP): 100% | Average tumor volume day 21 ([2]; SGN-35 0.8 mg/kg Q4D IP): 0 | tumors found in mice on day 76 ([2]; SGN-35 0.8 mg/kg single agent): No tumors were found in any mice | mice tumor free on day 21 post treatment ([2]; SGN-35 0.8 mg/kg single agent (Group 6)): 7/7 | tumor growth inhibition [3, 8]: 52% | Average tumor volume day 14 ([3]; SGN-35 0.2 mg/kg Q4D IP): 647.4 | day on which group was sacrificed ([3]; SGN-35 0.2 mg/kg single agent): 25 days | tumor growth inhibition [3, 9]: 100% | Average tumor volume day 14 ([3]; SGN-35 0.4 mg/kg Q4D IP): 0 | mice tumor free at day 14 ([3]; SGN-35 0.4 mg/kg single agent): All the mice | tumor growth inhibition [3, 10]: 100% | Average tumor volume day 14 ([3]; SGN-35 0.8 mg/kg Q4D IP): 0 | mice tumor free at day 14 ([3]; SGN-35 0.8 mg/kg single agent): All the mice
